Laboratory results: article PMC10049354, “Anti-Inflammatory Effects and Photo- and Neuro-Protective Properties of BIO203, a New Amide Conjugate of Norbixin, in Development for the Treatment of Age-Related Macular Degeneration (AMD)” (International Journal of Molecular Sciences, 2023)

Key:
[1] = Ocular PK in rats following four repeated IP administrations; assay type: in vivo; conditions: rat eye; for ocular exposure: BIO201 10 mg/kg, BIO203 2.5 mg/kg
Experimental: The compounds were administered to 8–9 months old Male Sprague-Dawley rats (n = 3 per group and per collection time) by four successive intraperitoneal administrations in vehicle (DMSO/NaCl/NaOH for BIO203 and PBS/Tween 80 (95/5) for BIO201). The solutions of BIO203 and BIO201 were centrifuged, and the clear supernatants were administered to rats. Administered volume was 10 mL/kg, and the final injected concentrations were 10 mg/kg and 2.5 mg/kg for BIO201 and BIO203, respectively. Again, doses administered differ because BIO201 and BIO203 solubility are not equivalent in their respective vehicles. The dose of BIO203 was reduced to avoid toxicity of DMSO present in the vehicle, but the same volumes were injected into animals. The eyes were collected 1 h after administrations n°1 to 4 according to the following timing: 1 h, 3.5 h, 5.5 h, and 7.5 h. After euthanasia, the two eyes of each rat were collected in a Precellys tube, frozen, and stored at −80 °C.
(§1) Analysis was performed on an LC 1260 System coupled with Mass Spectrometer QQQ-6420 with DAD (Agilent Technologies). Norbixin and BIO203 were eluted from a reverse-phase column (2.1 × 50 mm; 3 μm particles; Ace Excel C18) with the following gradient of acetonitrile in water (both containing 0.1% formic acid): 55 to 100% in 5 min), (flowrate: 0.3 mL/min). […] were monitored by a mass spectrometer, in positive MRM mode, with the following transitions, respectively, 381.1 -> 144.9 and 478.1 -> 362.9. For quantification of BIO201 and BIO203, calibration curves were prepared under the same conditions as the sample matrix, with various amounts of BIO201 or BIO203 (25 to 10,000 ng/mL in plasma and 5 to 500 ng/mL for eyes).
For determination of concentrations of BIO201 or BIO203 in ocular tissues, each eye was homogenized in CHCl3/MeOH (1:1, v/v) (0.5 mL) with a homogenizer (Precellys-24) during 2 cycles (30 s) at 6500 rpm. The internal standard (retinoic acid at 10 µg/mL) was added, and the organic layer was extracted. The homogenate was then extracted two times with CHCl3/CH2Cl2 (0.5 mL). […]

[2] = Acute ocular PK in rats following a single IP administration; assay type: in vivo, rat; conditions: for intraocular AUC / intraocular Cmax / time of intraocular Cmax post-administration: norbixin 10 mg/kg, BIO203 8.8 mg/kg
Experimental: The compounds were administered to 8–9 months-old Male Sprague-Dawley rats (n = 3 per group and per collection time) by the intraperitoneal route in vehicle (DMSO/NaCl/NaOH for BIO203 and PBS/Tween 80 (95/5) for norbixin) with an administration volume of 10 mL/kg. The solutions of BIO203 and norbixin were centrifuged, and the clear supernatants were administered to rats. The final injected concentrations were 10 mg/kg and 8.8 mg/kg for norbixin and BIO203, respectively. Doses administered differ because BIO201 and BIO203 solubility are not equivalent in their respective vehicles, and the dose of BIO203 was reduced to avoid toxicity of DMSO present in the vehicle, but the same volumes were injected into animals. Eyes were collected post-administration according to the following timing: 0, 0.08 h, 0.25 h, 0.5 h, 1 h, 1.5 h, 2 h, 4 h, 8 h, and 24 h. After euthanasia, the two eyes of each rat were collected in a Precellys tube, frozen, and stored at −80 °C.
as §1
For determination of concentrations of BIO201 or BIO203 in ocular tissues, each eye was homogenized in CHCl3/MeOH (1:1, v/v) (0.5 mL) with a homogenizer (Precellys-24) during 2 cycles (30 s) at 6500 rpm. The internal standard (retinoic acid at 10 µg/mL) was added, and the organic layer was extracted. The homogenate was then extracted two times with CHCl3/CH2Cl2 (0.5 mL). The combined organic extracts were dried in vacuo without heating (EZ2, Genevac Ltd., Ipswich, UK). Then they were dissolved in 100 μL DMSO/MeOH (1:1, v/v) and transferred to microtiter plates for LC-MS/MS analysis.

[3] = Powder stability at RT, 4 °C and −20 °C for up to 18 months (LC-MS/MS); assay type: physicochemical; conditions: for loss of the compound: 4 °C
Experimental: The potential breakdown of BIO203 compared to BIO201 was assessed every three months in samples stored for up to 18 months at room temperature, 4 °C, and −20 °C. On the day of analysis, weighted samples of BIO203 and norbixin powder were solubilized in DMSO at 10 mg/mL final concentration. DMSO solutions were further diluted 400-fold before performing LC-MS/MS analysis which was performed on an LC 1260 System coupled with Mass Spectrometer QQQ-6420 with DAD (Supplier Agilent Technologies). BIO201 and BIO203 were eluted from a reverse-phase column (2.1 mm × 50 mm; 5 μm particles; Fortis C18) with the following gradient of acetonitrile in water (both containing 0.1% formic acid): 10 to 100% in 10 min), (flow-rate: 0.3 mL/min), (UV detection A: 460 nm, B: 254 nm, DAD: 210–500 nm), (MS scan+: 50 to 800 Frag 120 CAV 5, MS scan-: 50 to 800 Frag 120 CAV 5). The AUC value was used to determine the stability of each compound.

[4] = tested on: albino rats exposed to blue-light-induced photoreceptor degeneration; assay: Blue-light damage (BLD) study in albino rats: retinal histology (photoreceptor layers); assay type: in vivo, rat; conditions: for preservation of retinal structure (photoreceptor layers): four IP administrations, 6 h blue-light exposure
Experimental: At the end of the measurement period on Day 7, rats were euthanized by an intraperitoneal injection of pentobarbital. Immediately after euthanasia, both eyeballs were sampled, fixed in Davidson’s solution, and processed for histology. Sections (5 to 7 µm thick) were performed along the vertical meridian and stained with Haematoxylin/Eosin stain. The vertical meridian included the optic nerve. […] The thickness of the outer nuclear layer was measured on each point. […] Histology and photoreceptor counting in mice were performed as previously described.
Sixty-four animals were selected based on good health and on scotopic electroretinogram performed before induction when the A-wave amplitude of both eyes was in the range of the global mean (all animals) of A-wave amplitude ± 1.96 SD. Animals were then randomized into the study groups using a macro function in Excel® software based on the A-wave amplitude of both eyes (mean value). On Day 0, BIO203, negative controls, and comparator (N-tert-Butyl-a-phenylnitrone (PBN)) were intraperitoneally injected using a 25 G needle in rats that have been dark-adapted for 36 h. Individually housed rats were then exposed for 6 h (±5 min) to a continuous blue, fluorescent light (400–540 nm) in clear plastic cages. After exposure and administration, the rats were placed in a dark room for 24 h (±1 h) and then were returned to rearing cyclic light conditions.

SMILES: COC1CCCN(C(=O)/C=C/C(C)=C/C=C/C(C)=C/C=C/C=C(C)/C=C/C=C(C)\C=C\C(=O)O)C1 (stereo not drawn) [BIO203]
- ocular exposure of BIO203 relative to BIO201 [1]: approximately 10 times
- ocular exposure [1]: 144.9 ng·h/eye
- ocular AUC increase compared to BIO201 ([2]; discussion summary): > 200 fold
- ocular Cmax increase compared to BIO201 ([2]; discussion summary): more than 10 fold
- concentration at 24 h ([2]; male, Sprague-Dawley, 8.8 mg/kg, rat eye, single IP, 24 h, read-out: remaining intraocular concentration at 24 h): ~2 ng/mL
- intraocular AUC of BIO203 relative to norbixin ([2]; rat eye, single IP): approximately 280 times
- intraocular AUC ([2]; rat eye, single IP): 704.1 ng·h/eye
- intraocular Cmax ([2]; rat eye, single IP): 133.1 ng/eye
- time of intraocular Cmax post-administration ([2]; rat eye, single IP): 1 h
- stability ([3]; RT, +4 °C and −20 °C, 18 months): stable at all temperatures tested for at least 18 months
- preservation of retinal structure (photoreceptor layers) ([4]; 5 mg/kg): did not observe neuroprotection
- preservation of retinal structure (photoreceptor layers) ([4]; 10 mg/kg): did not observe neuroprotection
- preservation of retinal structure (photoreceptor layers) ([4]; 25 mg/kg, p < 0.0001): partially preserved the retinal structure
- neuroprotective effect compared to vehicle (preliminary experiment) ([4]; BIO203 at 2.5 mg/mL (so in the source), IP, rat BLD): limited neuroprotective effect

SMILES: CC(=C/C=C/C(C)=C/C=C/C=C(C)/C=C/C=C(C)/C=C/C(=O)O)/C=C/C(=O)O [norbixin, 9′-cis-norbixin]
- ocular exposure [1]: 16.7 ng·h/eye
- remaining intraocular concentration at 24 h ([2]; rat eye, single IP, 24 h): no longer detectable
- intraocular AUC ([2]; rat eye, single IP): 2.5 ng·h/eye
- intraocular Cmax ([2]; rat eye, single IP): less than 8.5 ng/eye
- time of intraocular Cmax post-administration ([2]; rat eye, single IP): 0.25 h
- loss of the compound ([3]; 3 months): 10%
- loss of the compound ([3]; 6 months): −20.8%
- loss of the compound ([3]; 12 months): −66.4%
- left of the initial quantity ([3]; RT, 3 months): 41%
- left of the initial quantity ([3]; RT, stabilized between 12 and 18 months): 22.1%
- loss of compound ([3]; −20 °C, after one year): −18.1%
- stability ([3]; −20 °C, up to 6 months): appeared stable
- preservation of retinal structure (photoreceptor layers) ([4]; 50 mg/kg, p < 0.0001): partially preserved the retinal structure
